# Where two headings read alike, the source gives them in different places.
# Assays:
# Type in all cases: cell-based, Lawsonia intracellularis
# [1] = tested on: L. intracellularis (STR isolate); details: after 10 passages; McCoy cells; cysteine hydrochloride 0.02%, no hydrogen purge
# Description: The bacteria were passaged by cell lysis. Supernatants and cell lysates were prepared from both flasks, as described earlier, and were used to infect fresh monolayers of McCoy cells seeded into 25 cm^2 or 75 cm^2 flasks at split ratios of 1:1 or 1:2, depending on the extent of infection as determined by immunostaining of the 48-well plate monolayers.
# The 48-well plates infected with or without cysteine hydrochloride were fixed with 80% acetone on day 5 post-infection, and stained using the immunoperoxidase and immunofluorescence methods as described previously. The percent of McCoy cells infected using hydrogen gassing versus cysteine HCl was evaluated after each bacterial passage.
# [2] = tested on: L. intracellularis swine isolate PHE/MN-001; details: p49, after 9 passages, McCoy cells, cysteine hydrochloride 0.02%
# Description: Two 75 cm^2 flasks were seeded in a similar manner as described for the hamster STR isolate, starting with 6×10^5 McCoy cells in DMEM with 7% FBS, and incubated overnight at 37° C. in 5% CO2. […] The following day, the flasks were infected using the supernatant and cell lysate from L. intracellularis (PHE/MN-001 isolate)-infected McCoy cells at passage 40. One flask was evacuated, supplemented with 0.02% cysteine hydrochloride, purged with hydrogen, and placed in the incubator. The second flask was supplemented with 0.02% cysteine hydrochloride and placed in the incubator without first purging using hydrogen. The two 48-well plates were infected with L. intracellularis in parallel with the two flasks, and once again served as controls for monitoring the infection and for immunostaining. The flasks and 48-well plates were incubated in the incubator at 8.0% CO2, 8.8% O2 and 83.2% N2. The flasks were re-fed with 50% volume of media on day 2 and day 5 post-infection using DMEM with 5% FBS.
# The bacteria were passaged by cell lysis, as described in earlier. […] The percent of McCoy cells infected with cysteine hydrochloride and hydrogen gassing, as compared with cysteine HCl alone, was evaluated after each bacterial passage.
# [3] = tested on: L. intracellularis hamster isolate STR; details: McCoy cells; day 5 post-infection; cysteine hydrochloride 0.02%
# Description: The cells were incubated overnight at 37° C. in 5% CO2, and were infected the next day with ˜5×10^5 bacteria per 25 cm^2flask. The infected flasks and the 48-well plates were evacuated at 15 psi of Hg vacuum and purged with hydrogen. A second set of flasks and corresponding Trac bottles were evacuated and purged with pure nitrogen, and cysteine hydrochloride was added to a final concentration of 0.02%. The infected flasks and plates were incubated in a bi-gas incubator at 8.0% CO2, 8.8% O2 and 83.2% N2. The flasks were re-fed with 50% volume of media on day 2 and day 5 post-infection, using DMEM with 5% FBS. A determination of the degree of infection was made on day 5 using immunoperoxidase staining. Lysis and re-infection were carried out based on the extent of infection as monitored by immunostaining of 48-well plate infections (routinely on day 7 post-infection). The media supernatant was collected from the flasks and centrifuged at 3500 g for 30 minutes. The supernatant was discarded and the pellet resuspended in SPG with 5% FBS. The monolayers were washed with PBS, followed by the addition of water and incubation at 37° C. for 15 min, at which time cells began detaching from the flask. The cells were then lysed by passaging 4 to 5 times through a syringe fitted with an 18 ga needle. The lysate was centrifuged at 350 g for 5 min to pellet the cell nuclei. […]
# [4] = tested on: L. intracellularis swine isolate VP1; details: McCoy cells; for Monolayer infection by immunoperoxidase staining: day 5 or 6 post-infection
# Description: L. intracellularis swine isolate VP1 (passage 17) was used to infect McCoy cells. McCoy cells were seeded in tissue culture flasks at 1.25×10^5 cells per 25 cm^2 flask, and 1.25×10^4 cells per Trac bottle (Bibby Sterilin Ltd.; Staffordshire, United Kingdom), in DMEM supplemented with 7% fetal bovine serum (FBS). The Trac bottle was used to monitor simulative infection in the flask. The flasks and Trac bottles were incubated overnight at 37° C. in a humidified incubator with 5% CO2. The following day, cells in both the flask and Trac bottle were infected with the L. intracellularis swine isolate (passage 17) in fresh DMEM with 7% FBS. After the addition of L. intracellularis, the flasks and Trac bottles were treated in three different ways. One flask and the corresponding Trac bottle were evacuated at 15 psi of Hg vacuum and purged with pure hydrogen. A second flask and the corresponding Trac bottle were neither evacuated nor purged with hydrogen, but instead received a supplement of cysteine hydrochloride (Sigma, C-7477; St. Louis, Mo.), β-NAD and phoshatidylcholine to a final concentration of 0.01%, 5 mM and 100 ng/ml, respectively, during the first two passages, and only cysteine hydrochlride (0.02% final concentration) during the later passages. The third flask and the corresponding Trac bottle were not evacuated or purged with hydrogen, nor received any supplements. All flasks and Trac bottles were incubated at 37° C. in an incubator containing 8.0 % O2 and 8.8% CO2 and 83.2% N2. On day 2 and 5 post-infection, 50% of the media from all flasks and Trac bottles was replaced with fresh DMEM with 5% FBS with or without cysteine hydrochloride, β-NAD and phoshatidylcholine.
# On day 5 or 6 post-infection, the monolayers in the tissue culture flasks were monitored by immunoperoxidase staining of the corresponding Trac bottle cover slip. Briefly, the cover slip from the Trac bottle was removed and washed gently with Phosphate Buffered Saline (PBS), and bound to a microscope slide using a permanent glue. The cover slip then was fixed in acetone for 30 sec at room temperature. Rabbit anti-L. intracellularis polyclonal antibody, diluted 1:400 in PBS, was added to cover the entire cover slip, which was then incubated in a humidified environment at 37° C. for 30 min. The cover slip was washed gently with PBS and a 1:20 dilution of peroxidase-conjugated goat anti-rabbit IgG (H+L; Kirkegaard & Perry Laboratories, Inc.; Gaithersburg, Md.) was added to the cover slip and incubated for 30 min at 37° C. Peroxidase substrate solution was prepared by dissolving 10 mg of 3,3′-Diaminobenzidine (DAB; Sigma-Aldrich; St. Louis, Mo.) in 20 ml of PBS. After filtration through Whatman 113V filter paper (Whatman International Ltd.; Kent, United Kingdom), 40 μl of 30% H2O2 was added to the dissolved substrate. The final substrate solution was added to the cover slip and incubated at room temperature for 5 min. After rinsing with tap water, the cover slip was counterstained for 30 sec using Modified Harris Hematoxylin Solution (Sigma-Aldrich). The stained slide then was rinsed with tap water and observed under a microscope. Infection of the McCoy cells was also assessed by microscopic viewing of the bacteria in the media within the flask.
# The infected McCoy cells in the flask were lysed using a 0.1% potassium chloride (KCl) solution on day 6 or 7 post-infection. The lysed material was used to re-infect fresh McCoy cell monolayers in flasks and Trac bottles. Briefly, after removing the media from the flask, a 0.1% KCl solution was added (5 ml per 25 cm^2) and incubated at 37° C. for 5-10 min. The KCl solution was removed from the flask, and 2 ml of sucrose potassium glutamate (SPG; 0.218M sucrose, 0.0038M KH2PO4, 0.0072M K2H PO4, and 0.0049M potassium glutamate) with 5% FBS was added. A cell scraper was then used to remove the cells from the flask. They were then lysed by forcing them through a syringe fitted with a 18 ga needle. […]
# [5] = tested on: L. intracellularis isolate VP1; details: cysteine HCl 0.02%; for Bacteria in the Supernatant / Bacteria in the Supernatant: motility / Monolayer infection by staining: McCoy cells; for Monolayer infection by staining: day 6 or 7 post-infection; for Flagella in lysed material by fluorescent antibody (FITC) staining: hydrochloride
# Description: In a separate set of experiments, L. intracellularis isolate VP1 (passage 23) was used to infect McCoy cell monolayers. The cells were then placed in a microaerophilic environment for 15 days. […] Flasks were re-fed with fresh media. […] Monolayer cells from the flask were lysed using water. Briefly, media from the flask was removed, and approximately 16 ml of sterile de-ionized water was added to the flask, followed by incubation at 37° C. for 10 min. […] The flask was then gently tapped against the palm of the hand, and a drop of the lysed material was observed under a microscope. […] A 4.25% NaCl solution was immediately added to bring the media to near normal physiological osmolarity.
# The lysed material was centrifuged at 3200×g for 15 minutes. The resultant pellet was re-suspended in 41 ml of DMEM with 7% FBS, and was used to infect fresh McCoy cells. 35 ml of this lysed L. intracellularis infective material was added to one 175 cm^2 flask seeded with McCoy cells, and 0.5 ml to one seeded Trac bottle. Both the flask and the Trac bottle were evacuated with a vacuum at 15 psi of Hg, and then purged with pure hydrogen. 5 ml and 0.5 ml of the material were also used to infect McCoy cells seeded in a 25 cm^2 flask and a Trac bottle, respectively. Following evacuation with 15 psi of vacuum and a nitrogen flush, a 5× stock solution of cysteine HCl was added to the 25 cm^2 flask and the corresponding Trac bottle to a final concentration of 0.02%. All flasks and Trac bottles were incubated at 37° C. in an incubator containing 8.0% oxygen, 8.8% carbon dioxide and 83.2% nitrogen. Re-feeding was carried out as described above; the flask and Trac bottle which received cysteine HCl were also refed to the same final concentration (0.02%).
# The infection was monitored on day 6 or 7 post-infection by immunoperoxidase staining of the corresponding cover slips as described above. Infection was also monitored by flourescent antibody staining. Briefly, cell lysate was collected on a Cytospin microscopic slide using a Cytofunnel sample chamber (Shandon Inc.; Pittsburg, Pa.) and centrifugation for 10 min at 1500 rpm. The sample was air dried and fixed in acetone for 30 sec. The smear was then covered with a 1:400 dilution of rabbit anti-L. intracellularis polyclonal serum and incubated at 37° C. for 30 min. The slide was washed gently with PBS, and a 1:20 dilution of fluorescein-labeled Goat anti-rabbit IgG (H+L; Kirkegaard & Perry Labs) was added to the smear, and the slide was incubated at 37° C. for 30 min. It was then observed under a fluorescent microscope.
# [6] = passage P18, Treatment 2 = cysteine HCl 0.01% + β-NAD 5 mM + phosphatidylcholine 100 ng/ml
# [7] = passage P18, Treatment 2 = cysteine HCl 0.01% + β-NAD + phosphatidylcholine
# [8] = passage P19, Treatment 2 = cysteine HCl 0.01% + β-NAD + phosphatidylcholine
smiles,measurement,setting,value
Cl.N[C@@H](CS)C(=O)O [cysteine hydrochloride],Culture expansion from one 25 cm^2 flask (increase),[1],12 fold
same,Bacterial Counts (per ml supernatant),[2]; Split Ratio 1:2,8.5 × 10^7 per ml supernatant
same,Bacterial Counts (per ml supernatant),[2]; Split Ratio 1:4,5.8 × 10^7 per ml supernatant
same,Infection by immunoperoxidase staining of cover slips,[3],about 20%
same,Bacteria in the Supernatant,[4]; [6],Slightly positive
same,Monolayer infection by immunoperoxidase staining,[4]; [7],Little or no infection
same,Monolayer infection by immunoperoxidase staining,[4]; [8],20%
same,Monolayer infection by immunoperoxidase staining,"[4]; passage P20, cysteine HCl 0.02% only",30-40% (larger foci of
same,Bacteria in the Supernatant,"[4]; passage P21, cysteine HCl 0.02% only",Highly positive
same,Bacteria in the Supernatant,[5]; passage P25,"Slightly positive,"
same,Bacteria in the Supernatant: motility,[5]; passage P25,highly motile
same,Monolayer infection by staining,[5]; passage P26,50-60% infection
same,L. intracellularis infection of McCoy cells compared to infection using hydrogen gassing,[5],enhanced
same,Viability of L. intracellularis,[5]; inactive culture after 15 days in microaerophilic environment,viability could be restored
same,Flagella in lysed material by fluorescent antibody (FITC) staining,[5]; passage P25,elevated flagellar expression
same,Flagella in lysed material by fluorescent antibody (FITC) staining,"[5]; passage P25, listed as cysteine chloride",showed large numbers of flagella.
"[HH] [hydrogen, reference compound]",Culture expansion from one 25 cm^2 flask (increase),[1],4 fold
same,Infection by immunoperoxidase staining of cover slips,[3],about 20%
same,Bacteria in the Supernatant,[4]; [6],Positive
same,Monolayer infection by immunoperoxidase staining,[4]; [7],60-70%
same,Monolayer infection by immunoperoxidase staining,[4]; [8],≧80%
same,Bacteria in the Supernatant,[4]; passage P20,Highly positive
same,Bacteria in the Supernatant,[5]; passage P25,"Slightly positive,"
same,Bacteria in the Supernatant: motility,[5]; passage P25,Normal motilty
same,Monolayer infection by staining,[5]; passage P25,Lesser infection (smaller and

# — patent US20090232848A1, “METHODS FOR CULTIVATING LAWSONIA INTRACELLULARIS” (priority 2004, published 2009)
